Data from patent US20210255193A1, “LYSINE REACTIVE PROBES AND USES THEREOF” (The Scripps Research Institute, priority 2017, published 2021).

How the values were obtained:
Experiment in all cases: competitive isoTOP-ABPP
Type in all cases: binding
Details in all cases: 50 uM, 231 sol, in vitro
[1] = biological target: T1, TPD52L2 Tumor protein D54 (Homo sapiens, UniProt O43399); design: key to isoTOP-ABPP reactivity ratio at lysine O43399_K90: R = MS1 peak area ratio, DMSO (heavy) / compound-treated (light)
T1 construct: isoTOP-ABPP experiments performed in cell lysates (in vitro); endogenous in cells; host or cells: MDA-MB-231 soluble lysate
T1 sequence (O43399 whole entry): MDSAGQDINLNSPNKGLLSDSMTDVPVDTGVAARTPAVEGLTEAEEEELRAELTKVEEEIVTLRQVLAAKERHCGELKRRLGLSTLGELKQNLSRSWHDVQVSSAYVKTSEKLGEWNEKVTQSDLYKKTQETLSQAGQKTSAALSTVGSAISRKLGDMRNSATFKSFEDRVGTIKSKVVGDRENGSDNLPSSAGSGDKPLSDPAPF
Method: (§1) In vitro covalent fragment treatment for isoTOP-ABPP. All compounds were made up as solutions in DMSO (100×) and were used at a final concentration of 50 μM for activated esters and 100 μM for guanidinylating agents. For each profiling sample, 0.5 ml of lysate was treated with 5 μl of the 100× compound stock solution or 5 μl of DMSO. Samples were treated with activated esters for
(§2) STP-alkyne labeling and click chemistry. For concentration-dependent reactivity measurements by isoTOP-ABPP, 0.5 ml proteome aliquots were treated at ambient temperature with 1 mM STP-alkyne 1 (5 μl of 100 mM stock in DMSO) and 0.1 mM STP alkyne 1 (5 μl of 10 mM stock in DMSO), respectively. For competitive isoTOP-ABPP, after in vitro fragment treatment (detailed above), the samples were labeled for 1 h at ambient temperature with 0.1 mM STP-alkyne 1 (5 μl of 10 mM stock in DMSO). Samples were conjugated by copper-mediated azide-alkyne cycloaddition (CuAAC) to either the light (1 mM STP-alkyne or fragment treated) or heavy (0.1 mM STP-alkyne or DMSO treated) TEV tags (10 μl of 5 mM stocks in DMSO, final concentration=100 μM) using tris(2-carboxyethyl)phosphine hydrochloride
(§3) R value calculation and processing. The ratios of light and heavy MS1 peaks for each unique peptide were quantified with a CIMAGE software using default parameters (3 MS1 acquisitions per peak and signal to noise threshold set to 2.5). For reactivity measurements by isoTOP-ABPP, the R value was calculated from the ratio of MS1 peak areas, comparing the 1 mM STP alkyne sample (light TEV tag) with the 0.1 mM STP alkyne sample (heavy TEV tag). For competitive isoTOP-ABPP, the R value was calculated from the ratio of MS1 peak areas, comparing the DMSO treated sample (heavy TEV tag) with the compound treated sample (light TEV tag). […] Ratios for unique peptide entries are calculated for each experiment; overlapping peptides with the same modified lysine (for example, different charge states, MudPIT chromatographic steps or tryptic termini) are grouped together and the median ratio is reported as the final ratio (R). The peptide ratios reported by CIMAGE were further filtered to ensure the removal or correction of low-quality ratios in each individual data set. The quality filters applied were the following: removal of half tryptic peptides; for ratios with high standard deviations from the median (90% of the median or above) the lowest ratio was taken instead of the median; removal of peptides with R=20 and only a single MS2 event triggered during the elution of the parent ion; manual annotation of all the peptides with ratios of 20, removing any peptides with low quality elution profiles that remained after the previous curation steps (only done for competitive isoTOP-ABPP).
(§4) Cross-data processing for fragment screening. For compound treated samples, biological replicates of the same condition were averaged, if the standard deviation was below 60% of the mean; otherwise, for lysines with at least one R value <4 for a particular compound, the lowest value of the ratio set was taken. For lysines, where all R values for a particular compound were ≥4, the average was reported. For peptides containing several possible modified lysines, the lysine with the highest number of quantification events was used for analysis and the remaining, redundant peptides were reported as alternative modification sites. Peptides included in the aggregate dataset (those used for further bioinformatics and statistical analyses) were required to have been quantified in 2 experiments for competitive isoTOP-ABPP. Lysines were categorized as liganded, if they had at least one ratio R≥4 (hit fragments). For liganded lysines with R=20 for all liganding events, lysines were required to have been quantified with R=20 in two separate experiments and were further required to have been quantified with R<20 in one additional experiment.

[2] = biological target: T2, ECH1 Delta(3,5)-Delta(2,4)-dienoyl-CoA isomerase, mitochondrial (Homo sapiens, UniProt Q13011); design: key to isoTOP-ABPP reactivity ratio at lysine Q13011_K112: R = MS1 peak area ratio, DMSO (heavy) / compound-treated (light); capped at 20
T2 construct: isoTOP-ABPP experiments performed in cell lysates (in vitro); endogenous in cells; host or cells: soluble proteome of human cancer cell lines (MDA-MB-231, Ramos, Jurkat)
T2 sequence (Q13011 34-328): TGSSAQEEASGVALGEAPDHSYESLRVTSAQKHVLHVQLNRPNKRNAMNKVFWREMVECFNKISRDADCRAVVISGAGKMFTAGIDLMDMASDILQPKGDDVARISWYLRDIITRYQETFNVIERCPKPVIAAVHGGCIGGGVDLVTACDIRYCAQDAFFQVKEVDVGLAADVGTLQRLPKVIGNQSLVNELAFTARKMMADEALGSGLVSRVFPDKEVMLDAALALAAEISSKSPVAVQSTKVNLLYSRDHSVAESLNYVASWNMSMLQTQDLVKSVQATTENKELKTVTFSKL
Method: as §1, §2, §3, §4

[3] = biological target: T3, PSME3 Proteasome activator complex subunit 3 (Homo sapiens, UniProt P61289); design: key to isoTOP-ABPP reactivity ratio at lysine P61289_K237: R = MS1 peak area ratio, DMSO (heavy) / compound-treated (light); key to isoTOP-ABPP reactivity ratio at lysine P61289_K12: R = MS1 peak area ratio, DMSO (heavy) / compound-treated (light); capped at 20
T3 construct: isoTOP-ABPP experiments performed in cell lysates (in vitro); endogenous in cells; host or cells: soluble proteome of human cancer cell lines (MDA-MB-231, Ramos, Jurkat)
T3 sequence (P61289 whole entry, one chain of several): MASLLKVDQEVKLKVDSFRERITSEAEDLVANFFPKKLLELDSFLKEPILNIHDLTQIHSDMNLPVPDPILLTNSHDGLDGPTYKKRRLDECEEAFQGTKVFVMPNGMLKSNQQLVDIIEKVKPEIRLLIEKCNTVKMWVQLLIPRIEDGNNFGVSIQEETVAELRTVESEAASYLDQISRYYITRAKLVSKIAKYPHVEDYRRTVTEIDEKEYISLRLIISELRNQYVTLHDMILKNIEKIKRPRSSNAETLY
Method: as §1, §2, §3, §4

[4] = biological target: T4, SRP54 Signal recognition particle 54 kDa protein (Homo sapiens, UniProt P61011); design: key to isoTOP-ABPP reactivity ratio at lysine P61011_K81: R = MS1 peak area ratio, DMSO (heavy) / compound-treated (light); capped at 20
T4 construct: isoTOP-ABPP experiments performed in cell lysates (in vitro); endogenous in cells; host or cells: soluble proteome of human cancer cell lines (MDA-MB-231, Ramos, Jurkat)
T4 sequence (P61011 whole entry): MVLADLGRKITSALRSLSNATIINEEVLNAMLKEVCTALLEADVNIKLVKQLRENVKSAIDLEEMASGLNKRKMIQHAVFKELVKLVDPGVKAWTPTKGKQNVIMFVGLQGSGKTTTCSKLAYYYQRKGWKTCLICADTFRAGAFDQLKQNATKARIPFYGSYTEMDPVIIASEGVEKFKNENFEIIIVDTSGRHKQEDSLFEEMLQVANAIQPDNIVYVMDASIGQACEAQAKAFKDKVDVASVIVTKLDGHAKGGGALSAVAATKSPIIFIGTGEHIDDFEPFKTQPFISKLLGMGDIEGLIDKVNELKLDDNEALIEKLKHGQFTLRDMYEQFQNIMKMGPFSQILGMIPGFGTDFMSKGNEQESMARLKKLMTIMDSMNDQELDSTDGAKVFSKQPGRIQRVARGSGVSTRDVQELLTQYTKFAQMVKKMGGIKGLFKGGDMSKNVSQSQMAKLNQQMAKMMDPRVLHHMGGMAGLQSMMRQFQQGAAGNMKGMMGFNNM
Method: as §1, §2, §3, §4

isoTOP-ABPP reactivity ratio at lysine O43399_K90 [1]: 1.1
isoTOP-ABPP reactivity ratio at lysine Q13011_K112 [2]: 1.8
isoTOP-ABPP reactivity ratio at lysine P61289_K12 [3]: 1.0
isoTOP-ABPP reactivity ratio at lysine P61289_K237 [3]: 0.6
isoTOP-ABPP reactivity ratio at lysine P61011_K81 [4]: 0.8
Compound: CCn1cc(C(=O)Oc2c(F)c(F)c(F)c(F)c2F)c(=O)c2ccc(C)nc21 [fragment 28, Pentafluorophenyl 1-ethyl-7-methyl-4-oxo-1,4-dihydro-1,8-naphthyridine-3-carboxylate]
